Data taken from ChEMBL document CHEMBL1759964, “Structure-based virtual screening approach to the discovery of phosphoinositide 3-kinase alpha inhibitors” (Bioorg Med Chem Lett, 2011).

Target: Phosphatidylinositol 4,5-bisphosphate 3-kinase catalytic subunit alpha isoform (Homo sapiens, UniProt P42336)
Experiment: Inhibition of PI3Kalpha

Sequence of Phosphatidylinositol 4,5-bisphosphate 3-kinase catalytic subunit alpha isoform (P42336 whole entry, canonical isoform): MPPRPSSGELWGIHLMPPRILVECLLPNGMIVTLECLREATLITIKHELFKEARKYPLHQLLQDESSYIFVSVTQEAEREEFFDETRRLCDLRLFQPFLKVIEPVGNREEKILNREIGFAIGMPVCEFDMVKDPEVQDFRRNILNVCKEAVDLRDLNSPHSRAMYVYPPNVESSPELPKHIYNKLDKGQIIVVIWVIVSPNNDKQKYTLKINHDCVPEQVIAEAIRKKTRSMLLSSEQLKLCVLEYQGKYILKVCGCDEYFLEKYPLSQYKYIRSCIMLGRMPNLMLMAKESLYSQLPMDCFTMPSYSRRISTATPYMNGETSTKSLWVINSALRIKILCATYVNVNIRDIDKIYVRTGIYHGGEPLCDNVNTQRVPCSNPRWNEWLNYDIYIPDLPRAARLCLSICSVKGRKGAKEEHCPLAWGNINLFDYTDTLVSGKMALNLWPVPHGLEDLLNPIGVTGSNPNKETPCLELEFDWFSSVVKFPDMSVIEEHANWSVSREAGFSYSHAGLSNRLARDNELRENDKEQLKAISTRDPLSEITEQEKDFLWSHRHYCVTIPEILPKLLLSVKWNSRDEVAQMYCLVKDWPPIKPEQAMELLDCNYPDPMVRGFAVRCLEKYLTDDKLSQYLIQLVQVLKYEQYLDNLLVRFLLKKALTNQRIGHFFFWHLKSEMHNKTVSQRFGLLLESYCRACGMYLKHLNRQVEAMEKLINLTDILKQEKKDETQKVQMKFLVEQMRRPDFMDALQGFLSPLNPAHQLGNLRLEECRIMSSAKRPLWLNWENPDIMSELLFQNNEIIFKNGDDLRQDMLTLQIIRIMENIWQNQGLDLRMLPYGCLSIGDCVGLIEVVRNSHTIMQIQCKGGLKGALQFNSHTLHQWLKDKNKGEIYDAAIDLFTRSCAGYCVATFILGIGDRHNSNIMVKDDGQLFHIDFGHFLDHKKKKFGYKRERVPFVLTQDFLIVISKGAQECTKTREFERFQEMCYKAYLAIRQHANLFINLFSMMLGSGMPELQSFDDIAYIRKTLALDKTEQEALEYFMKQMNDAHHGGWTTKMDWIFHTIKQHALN

Cc1cccc(NC(=O)c2ccc(Cn3cnc4ccccc4c3=O)o2)n1
IC50: 28 µM

Cc1nc(N/C(N)=N/C(=O)c2ccccc2N)nc2ccccc12
IC50: 23 µM

CCOc1ccc2nc3cc(/N=C/c4ccco4)ccc3c(N)c2c1
IC50: 40 µM

Cc1ccc(OCC(=O)Nc2ccc(-c3nnc(-c4ccco4)o3)cc2)cc1
IC50: 40 µM
